In PubChem BioAssay (NCI) one finds GI50 and TGI data, which are given here for 13 molecules.

Among the test systems are SF-539 CNS; SNB-19 CNS; NCI-H460 lung; HS 578T breast; OVCAR-4 ovarian; RPMI-8226 leukemia; NCI/ADR-RES ovarian; SN12C renal.
What all share (experiment): NCI-60 cell line screen, 48 h

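Values below derive from 48-hour exposures of cells grown in 96-well plates, with endpoints linearly interpolated between the two concentrations bracketing the appropriate inhibition level. At the GI50, growth is halved. TGI: concentration producing complete growth inhibition.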 A value given as a limit tells only on which side of the number the result lay.

Take `Cn1c2ccccc2c2nnc(N/N=C/c3ccccn3)nc21`: the GI50 in the test with SF-539 CNS was 0.284 µM; in the test with SNB-19 CNS, 0.412 µM; in the test with NCI-H460 lung it was 0.346 µM; in the test on HS 578T breast, 2.06 µM; in the test with OVCAR-4 ovarian, 0.419 µM; in the test on RPMI-8226 leukemia, 0.367 µM. For the same molecule, the GI50 in the test on NCI/ADR-RES ovarian was 0.336 µM; in the test with SN12C renal, 0.286 µM. The TGI with SF-539 CNS is 0.854 µM; in the test with SNB-19 CNS it was more than 100 µM; in the test on NCI-H460 lung it was 5.69 µM; with HS 578T breast it was 82.9 µM; in the test with OVCAR-4 ovarian it was more than 58.9 µM; in the test on RPMI-8226 leukemia, 16.6 µM. Also, the TGI with NCI/ADR-RES ovarian came to 8.89 µM.
Take `CNC1NC(=O)c2ccccc2N1Cc1ccc(F)cc1` (configuration not stated): the TGI in the test with SF-539 CNS, in the test on SNB-19 CNS, in the test with NCI-H460 lung, in the test with HS 578T breast, in the test on OVCAR-4 ovarian and in the test with RPMI-8226 leukemia was more than 100 µM throughout. Also, the TGI in the test with NCI/ADR-RES ovarian and in the test on SN12C renal was more than 100 µM in each case.
`Cc1nn2c(/C=C3/C(=O)Nc4ccc(Cl)cc43)c(-c3ccccc3)nc2s1`: the GI50 was 2.25 µM in the test with SF-539 CNS; 9.54 µM in the test on SNB-19 CNS; 3.18 µM in the test on NCI-H460 lung; 2.45 µM in the test on HS 578T breast; 1.66 µM in the test on OVCAR-4 ovarian; 2.94 µM in the test with RPMI-8226 leukemia. Moreover, the GI50 in the test with SN12C renal is 3.95 µM. Moreover, the TGI stood at 6.54 µM in the test on SF-539 CNS; 34.2 µM in the test with SNB-19 CNS; 11.7 µM in the test with NCI-H460 lung; 7.79 µM with HS 578T breast; 3.64 µM in the test with OVCAR-4 ovarian; 22.1 µM in the test with RPMI-8226 leukemia. In addition, the TGI with SN12C renal came out at 18.4 µM.
In the case of `Cc1cc(N/N=C/c2nc(-c3ccccc3)oc2C)c2cc(Cl)ccc2n1`, the GI50 in the test with SF-539 CNS was 1.7 µM; in the test with SNB-19 CNS it was 2.12 µM; in the test on NCI-H460 lung, 1.88 µM; with OVCAR-4 ovarian, 1.85 µM; in the test with NCI/ADR-RES ovarian, 1.84 µM; in the test with SN12C renal, 1.78 µM. Also, the TGI was 3.17 µM in the test with SF-539 CNS; 4.86 µM in the test with SNB-19 CNS; 3.61 µM in the test on NCI-H460 lung; 3.53 µM with OVCAR-4 ovarian; 3.95 µM in the test on NCI/ADR-RES ovarian; 3.49 µM with SN12C renal.
In the case of `NC1CCC[C@@H](O)[C@H]1O` (some centres not stated), the TGI with SF-539 CNS, in the test on SNB-19 CNS, in the test with NCI-H460 lung, with HS 578T breast, in the test on RPMI-8226 leukemia and with NCI/ADR-RES ovarian was more than 100 µM each time. This molecule also yielded a TGI in the test with SN12C renal of more than 100 µM.
Consider `COc1ccc(C(=O)/C=C/c2cc(C(=O)c3cc(OC)c(OC)c(OC)c3)ccc2OC)cc1`, for which the GI50 in the test with SNB-19 CNS was 4.54 µM; in the test with HS 578T breast it was 4.3 µM; with NCI/ADR-RES ovarian, 2.93 µM. Besides, the TGI in the test on SNB-19 CNS, in the test with HS 578T breast and in the test on NCI/ADR-RES ovarian was more than 100 µM in each case.
With `NC(=NC1CCCCCC1)c1ccc(N2CCN(c3ccc(C(N)=NC4CCCCCC4)cc3)CC2)cc1`, the GI50 was 10.1 µM with SNB-19 CNS; 3.65 µM in the test on NCI-H460 lung; 26.6 µM in the test with OVCAR-4 ovarian; more than 50 µM with NCI/ADR-RES ovarian; 2.33 µM with SN12C renal. For the same molecule, the TGI in the test on SNB-19 CNS was 27.1 µM; in the test with NCI-H460 lung, 16.8 µM; in the test with OVCAR-4 ovarian it was more than 50 µM; in the test on NCI/ADR-RES ovarian, more than 50 µM; in the test on SN12C renal it was 16.9 µM.
On to `NC(=O)C1=C(c2ccccc2)c2ccccc2C1=O`, for which the TGI in the test with SNB-19 CNS is 35.4 µM; in the test on NCI-H460 lung, 33.4 µM; with HS 578T breast, 64.2 µM; in the test with OVCAR-4 ovarian, 33.5 µM; in the test on RPMI-8226 leukemia, 72.4 µM; with NCI/ADR-RES ovarian it was 38 µM. In the test with SN12C renal, this molecule had a TGI of 33.8 µM.
In the case of `C=C(CN1CCN(c2ccccc2F)CC1)c1ccc(C(=O)Nc2ccccc2N)cc1`, the GI50 with SF-539 CNS was 1.55 µM; in the test with SNB-19 CNS, 3.74 µM; in the test with NCI-H460 lung, 4.44 µM; in the test on HS 578T breast, 3.14 µM; in the test with OVCAR-4 ovarian, 5.01 µM; in the test with RPMI-8226 leukemia, 1.16 µM. Besides, the GI50 with SN12C renal was 1.82 µM. The TGI in the test with SF-539 CNS was 6.31 µM; in the test on SNB-19 CNS, more than 100 µM; in the test on NCI-H460 lung it was more than 100 µM; in the test on HS 578T breast, more than 100 µM; in the test with OVCAR-4 ovarian, more than 100 µM; with RPMI-8226 leukemia it was 3.78 µM. Moreover, the TGI in the test on SN12C renal is 40.9 µM.
As to `CCOC(=O)C#Cc1ccc(C#CC(=O)OCC)cc1`, the TGI was more than 47.5 µM in the test with SF-539 CNS; more than 38.3 µM in the test with SNB-19 CNS; more than 46.8 µM in the test on NCI-H460 lung; 29 µM in the test with HS 578T breast; more than 25.3 µM in the test on RPMI-8226 leukemia; 15.3 µM in the test on NCI/ADR-RES ovarian.
`CCc1nc2ccc(Cc3ccc(C(=O)NO)cc3)cc2c(=O)n1CCc1ccccc1`: the GI50 in the test with SF-539 CNS is 1.46 µM; in the test on SNB-19 CNS it was 2.07 µM; in the test on NCI-H460 lung it was 0.52 µM; with HS 578T breast, 1.59 µM; in the test on OVCAR-4 ovarian, 1.25 µM; in the test on RPMI-8226 leukemia, 1.07 µM. Further, the GI50 in the test with NCI/ADR-RES ovarian was 0.37 µM. Moreover, the TGI in the test with SF-539 CNS turned out to be 3.65 µM; with SNB-19 CNS, 7.57 µM; in the test with NCI-H460 lung, 2.07 µM; in the test with HS 578T breast it was 7.4 µM; with OVCAR-4 ovarian, 6.09 µM; with RPMI-8226 leukemia it was 10.3 µM. In addition, the TGI in the test with NCI/ADR-RES ovarian was 4.59 µM.
In the case of `O=C(Nc1cc(Cl)ccc1O)c1cccc(NC2=C(Cl)C(=O)N(Cc3ccccc3)C2=O)c1`, the GI50 was 27.2 µM in the test with SF-539 CNS; 48.4 µM in the test on SNB-19 CNS; 18.6 µM in the test on NCI-H460 lung; 20.9 µM in the test with HS 578T breast; 55.5 µM in the test with OVCAR-4 ovarian; 20.7 µM in the test on NCI/ADR-RES ovarian. Also, the GI50 in the test with SN12C renal is 16 µM. Besides, the TGI was 58.9 µM with SF-539 CNS; more than 100 µM in the test with SNB-19 CNS; 40.9 µM in the test on NCI-H460 lung; 49.9 µM in the test with HS 578T breast; more than 100 µM in the test on OVCAR-4 ovarian; 43.4 µM in the test on NCI/ADR-RES ovarian. The same molecule had a TGI with SN12C renal of 33.6 µM.
In the case of `Cl.Fc1c[c-]c(-c2ccccn2)c(F)c1.[Pt].c1ccc([PH+](CC[PH+](c2ccccc2)c2ccccc2)c2ccccc2)cc1`, the GI50 in the test on SF-539 CNS is 0.164 µM; with SNB-19 CNS, 0.0656 µM; with OVCAR-4 ovarian, 0.187 µM; with RPMI-8226 leukemia, 0.0341 µM; with NCI/ADR-RES ovarian, 1.01 µM. For the same molecule, the TGI amounted to 0.976 µM with SF-539 CNS; 1.26 µM in the test on SNB-19 CNS; 1.01 µM in the test with OVCAR-4 ovarian; 0.249 µM with RPMI-8226 leukemia; 4.18 µM in the test on NCI/ADR-RES ovarian.
